Where a SMILES comes first, the peptide text is derived from it.
Tests used:
[1] = target: 5-hydroxytryptamine receptor 2B (Homo sapiens, UniProt P41595); format: functional, cell-based
[2] = target: T1, Neuropeptide Y receptor type 1 (Homo sapiens, UniProt P25929)
T1 sequence (P25929 whole entry): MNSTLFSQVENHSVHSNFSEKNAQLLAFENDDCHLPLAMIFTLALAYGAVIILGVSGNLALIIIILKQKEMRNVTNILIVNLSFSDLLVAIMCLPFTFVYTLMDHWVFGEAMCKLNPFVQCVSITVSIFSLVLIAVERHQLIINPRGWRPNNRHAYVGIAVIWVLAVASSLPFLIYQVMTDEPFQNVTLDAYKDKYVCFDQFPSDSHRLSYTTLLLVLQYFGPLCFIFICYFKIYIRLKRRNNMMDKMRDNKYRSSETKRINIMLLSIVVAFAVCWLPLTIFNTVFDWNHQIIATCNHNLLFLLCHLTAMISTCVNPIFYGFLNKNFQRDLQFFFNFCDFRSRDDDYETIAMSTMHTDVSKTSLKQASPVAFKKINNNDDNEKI

[3] = target: Beta-1 adrenergic receptor (Homo sapiens, UniProt P08588); format: functional
Motilin receptor = Motilin receptor (Homo sapiens, UniProt O43193)
Progesterone receptor = target: T2, Progesterone receptor (Homo sapiens, UniProt P06401); format: functional
T2 sequence (P06401 whole entry): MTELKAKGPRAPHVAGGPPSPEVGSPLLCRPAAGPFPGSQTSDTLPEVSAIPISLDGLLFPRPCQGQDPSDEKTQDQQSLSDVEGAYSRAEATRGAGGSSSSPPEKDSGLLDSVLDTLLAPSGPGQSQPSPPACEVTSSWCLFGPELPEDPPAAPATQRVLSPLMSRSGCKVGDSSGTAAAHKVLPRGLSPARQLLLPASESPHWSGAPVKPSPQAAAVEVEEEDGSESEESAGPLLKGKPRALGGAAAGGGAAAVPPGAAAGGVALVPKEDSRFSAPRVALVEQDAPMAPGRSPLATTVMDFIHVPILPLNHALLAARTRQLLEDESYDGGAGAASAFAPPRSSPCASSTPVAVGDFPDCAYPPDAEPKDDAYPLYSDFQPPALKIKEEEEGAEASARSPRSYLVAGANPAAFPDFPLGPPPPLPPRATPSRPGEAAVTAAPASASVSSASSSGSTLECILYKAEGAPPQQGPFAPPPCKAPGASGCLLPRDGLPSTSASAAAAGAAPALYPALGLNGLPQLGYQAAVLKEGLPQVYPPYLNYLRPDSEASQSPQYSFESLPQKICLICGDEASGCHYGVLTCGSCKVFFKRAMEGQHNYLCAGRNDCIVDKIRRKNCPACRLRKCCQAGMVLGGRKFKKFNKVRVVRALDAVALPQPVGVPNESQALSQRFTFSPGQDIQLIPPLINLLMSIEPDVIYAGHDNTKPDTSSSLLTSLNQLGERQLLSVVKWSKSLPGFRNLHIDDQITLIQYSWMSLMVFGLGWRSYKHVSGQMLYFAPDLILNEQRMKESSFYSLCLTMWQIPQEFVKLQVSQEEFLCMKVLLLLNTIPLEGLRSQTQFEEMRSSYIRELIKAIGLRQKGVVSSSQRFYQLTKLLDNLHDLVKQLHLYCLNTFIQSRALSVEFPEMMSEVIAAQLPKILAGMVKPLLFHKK

[4] = target: T3, Cholecystokinin receptor type A (Homo sapiens, UniProt P32238)
T3 sequence (P32238 whole entry): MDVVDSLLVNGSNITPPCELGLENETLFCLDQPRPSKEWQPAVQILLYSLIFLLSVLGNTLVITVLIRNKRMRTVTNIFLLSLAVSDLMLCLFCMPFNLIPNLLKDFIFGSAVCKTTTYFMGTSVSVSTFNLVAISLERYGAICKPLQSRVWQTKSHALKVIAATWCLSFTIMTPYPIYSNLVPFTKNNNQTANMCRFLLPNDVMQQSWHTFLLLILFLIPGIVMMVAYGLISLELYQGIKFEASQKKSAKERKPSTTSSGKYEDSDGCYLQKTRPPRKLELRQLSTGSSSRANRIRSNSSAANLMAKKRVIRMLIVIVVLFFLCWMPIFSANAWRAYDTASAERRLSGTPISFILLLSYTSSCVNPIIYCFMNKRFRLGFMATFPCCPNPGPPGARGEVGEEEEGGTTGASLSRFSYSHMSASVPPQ

[5] = target: T4, Amine oxidase [flavin-containing] A (Homo sapiens, UniProt P21397); format: functional
T4 sequence (P21397 whole entry): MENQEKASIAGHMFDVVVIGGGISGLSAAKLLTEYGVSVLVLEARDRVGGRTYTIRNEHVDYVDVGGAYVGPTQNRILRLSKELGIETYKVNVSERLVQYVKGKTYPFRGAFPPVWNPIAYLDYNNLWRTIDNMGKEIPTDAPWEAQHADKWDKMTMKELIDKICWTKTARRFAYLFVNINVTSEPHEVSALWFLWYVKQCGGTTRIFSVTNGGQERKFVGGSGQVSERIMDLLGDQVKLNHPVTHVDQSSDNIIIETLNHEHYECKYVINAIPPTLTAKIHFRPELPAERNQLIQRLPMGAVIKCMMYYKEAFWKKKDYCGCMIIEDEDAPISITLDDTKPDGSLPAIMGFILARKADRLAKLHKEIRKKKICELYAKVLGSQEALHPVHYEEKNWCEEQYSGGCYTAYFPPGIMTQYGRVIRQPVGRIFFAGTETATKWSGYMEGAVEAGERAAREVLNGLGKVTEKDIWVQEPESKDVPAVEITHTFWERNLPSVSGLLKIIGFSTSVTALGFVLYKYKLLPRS

Cannabinoid receptor 1 = Cannabinoid receptor 1 (Homo sapiens, UniProt P21554); format: functional, cell-based
[6] = target: T5, Muscarinic acetylcholine receptor M2 (Homo sapiens, UniProt P08172); format: functional, cell-based
T5 sequence (P08172 whole entry): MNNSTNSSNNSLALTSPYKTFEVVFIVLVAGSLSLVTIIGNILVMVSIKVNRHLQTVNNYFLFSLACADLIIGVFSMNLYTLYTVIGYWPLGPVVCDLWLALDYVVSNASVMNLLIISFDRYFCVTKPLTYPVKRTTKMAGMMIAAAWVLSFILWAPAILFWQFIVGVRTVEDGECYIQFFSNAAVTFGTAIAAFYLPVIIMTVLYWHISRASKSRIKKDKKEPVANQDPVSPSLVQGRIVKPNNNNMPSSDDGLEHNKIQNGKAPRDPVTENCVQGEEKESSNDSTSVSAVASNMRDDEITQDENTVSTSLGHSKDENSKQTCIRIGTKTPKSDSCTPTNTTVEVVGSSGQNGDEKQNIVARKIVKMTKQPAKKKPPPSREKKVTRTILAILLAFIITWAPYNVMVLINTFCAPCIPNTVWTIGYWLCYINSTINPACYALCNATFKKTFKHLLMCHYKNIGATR
Further: assay procedure not described here.

Sequence of Motilin receptor (O43193 whole entry): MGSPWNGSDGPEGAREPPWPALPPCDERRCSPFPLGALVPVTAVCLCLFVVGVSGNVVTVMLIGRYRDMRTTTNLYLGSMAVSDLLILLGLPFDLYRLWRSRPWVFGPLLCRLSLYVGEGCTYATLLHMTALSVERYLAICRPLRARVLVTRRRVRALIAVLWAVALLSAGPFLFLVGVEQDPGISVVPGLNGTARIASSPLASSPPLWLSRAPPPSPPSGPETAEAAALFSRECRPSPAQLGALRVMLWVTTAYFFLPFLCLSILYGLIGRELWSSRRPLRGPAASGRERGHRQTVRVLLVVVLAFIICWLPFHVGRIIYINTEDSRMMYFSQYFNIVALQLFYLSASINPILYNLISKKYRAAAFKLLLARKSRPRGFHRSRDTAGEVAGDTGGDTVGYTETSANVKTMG
Sequence of Cannabinoid receptor 1 (P21554 whole entry): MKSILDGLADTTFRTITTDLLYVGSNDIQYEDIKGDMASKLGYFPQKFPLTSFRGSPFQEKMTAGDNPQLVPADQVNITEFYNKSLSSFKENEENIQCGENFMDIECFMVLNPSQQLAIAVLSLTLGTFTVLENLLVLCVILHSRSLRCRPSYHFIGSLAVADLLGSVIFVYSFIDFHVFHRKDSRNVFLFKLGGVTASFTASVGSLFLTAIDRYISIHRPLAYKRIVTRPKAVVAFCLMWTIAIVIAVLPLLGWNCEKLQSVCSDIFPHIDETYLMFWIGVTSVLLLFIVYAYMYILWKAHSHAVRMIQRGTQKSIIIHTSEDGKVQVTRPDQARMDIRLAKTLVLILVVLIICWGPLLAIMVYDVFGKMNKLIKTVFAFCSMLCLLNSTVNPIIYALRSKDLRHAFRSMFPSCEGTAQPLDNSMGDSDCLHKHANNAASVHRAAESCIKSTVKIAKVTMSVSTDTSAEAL
Sequence of 5-hydroxytryptamine receptor 2B (P41595 whole entry): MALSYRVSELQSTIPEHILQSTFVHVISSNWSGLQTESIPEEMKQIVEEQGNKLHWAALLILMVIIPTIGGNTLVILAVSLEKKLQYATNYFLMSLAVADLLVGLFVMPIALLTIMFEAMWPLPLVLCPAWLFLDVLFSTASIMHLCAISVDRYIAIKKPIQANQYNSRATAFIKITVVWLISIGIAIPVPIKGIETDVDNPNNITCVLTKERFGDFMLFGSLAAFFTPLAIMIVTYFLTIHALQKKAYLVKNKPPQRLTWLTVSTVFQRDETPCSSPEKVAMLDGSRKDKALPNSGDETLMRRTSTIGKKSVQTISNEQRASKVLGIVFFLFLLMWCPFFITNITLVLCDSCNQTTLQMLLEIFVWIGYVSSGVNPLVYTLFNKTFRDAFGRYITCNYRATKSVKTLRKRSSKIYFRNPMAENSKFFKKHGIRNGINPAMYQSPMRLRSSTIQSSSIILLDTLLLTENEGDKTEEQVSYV
Sequence of Beta-1 adrenergic receptor (P08588 whole entry): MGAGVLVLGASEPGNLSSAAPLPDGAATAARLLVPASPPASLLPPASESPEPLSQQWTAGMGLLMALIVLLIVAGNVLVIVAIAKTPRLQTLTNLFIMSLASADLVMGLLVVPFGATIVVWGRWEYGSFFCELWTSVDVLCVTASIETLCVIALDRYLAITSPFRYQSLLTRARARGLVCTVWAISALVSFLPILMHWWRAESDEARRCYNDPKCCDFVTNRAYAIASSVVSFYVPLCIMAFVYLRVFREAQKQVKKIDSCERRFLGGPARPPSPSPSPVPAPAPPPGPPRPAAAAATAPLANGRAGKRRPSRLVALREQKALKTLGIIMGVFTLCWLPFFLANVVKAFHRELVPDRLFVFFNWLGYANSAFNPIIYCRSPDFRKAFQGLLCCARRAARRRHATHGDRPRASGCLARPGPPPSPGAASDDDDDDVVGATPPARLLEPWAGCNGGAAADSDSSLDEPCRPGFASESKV

Structure (SMILES) | AC50 [1] [µM] | AC50 [2] [µM] | AC50 [3] [µM] | AC50 (Motilin receptor) [µM] | AC50 (Progesterone receptor) [µM] | AC50 [4] [µM] | AC50 [5] [µM] | AC50 (Cannabinoid receptor 1) [µM] | AC50 [6] [µM]
CCCCCCOC(=O)NC(=N)c1ccc(NCc2nc3cc(C(=O)N(CCC(=O)OCC)c4ccccn4)ccc3n2C)cc1 [DABIGATRAN ETEXILATE] | > 30 | > 30 | > 30 | > 30 | > 30 | > 30 | > 30 | > 30 | > 30
CC1=C(C(=O)O)N2C(=O)[C@@H](NC(=O)[C@H](N)C3=CCC=CC3)[C@H]2SC1 [CEPHRADINE] | > 30 | > 30 | > 30 | > 30 | 22 | > 30 | > 30 | > 30 | > 30
Cc1ccc(S(=O)(=O)NC(=O)N[C@H]2[C@H]3CC[C@@](C)([C@H]2O)C3(C)C)cc1 [GLIBORNURIDE] | > 30 | > 30 | > 30 | > 30 | > 30 | > 30 | > 30 | > 30 | > 30
CCN(CC)Cc1nccn1-c1ccc([N+](=O)[O-])cc1C(=O)c1ccccc1Cl [NIZOFENONE] | > 30 | > 30 | > 30 | > 30 | > 30 | > 30 | > 30 | > 30 | > 30
CC1=C(/C=C/C(C)=C/C=C/C(C)=C/C(=O)Oc2c(C)c(C)c3c(c2C)CCC(C)(CCCC(C)CCCC(C)CCCC(C)C)O3)C(C)(C)CCC1 (centres undefined) [TRETINOIN TOCOFERIL] | > 30 | > 30 | > 30 | > 30 | 19 | > 30 | > 30 | > 30 | > 30
CO/N=C(\C(=O)N[C@@H]1C(=O)N2C(C(=O)O)=C(CSc3nc(C)c(CC(=O)O)s3)CS[C@H]12)c1csc(N)n1 [CEFODIZIME] | > 30 | > 30 | > 30 | > 30 | > 30 | > 30 | > 30 | > 30 | > 30
C=C(c1ccccc1OCc1cccc(Cl)c1)n1ccnc1 [CROCONAZOLE] | > 10 | > 30 | > 30 | > 10 | > 30 | > 30 | > 10 | > 30 | > 10
CN(C)CCOCC(=O)NC12CC3CC(CC(C3)C1)C2 [TROMANTADINE] | > 30 | > 30 | > 30 | > 30 | > 30 | > 30 | > 30 | > 30 | > 30
CC(C)CN(C[C@@H](O)[C@H](Cc1ccccc1)NC(=O)O[C@H]1CCOC1)S(=O)(=O)c1ccc(N)cc1 | > 10 | > 30 | > 10 | 7.3 | > 10 | > 30 | > 10 | > 30 | > 10
C[C@H](N)C(=O)N[C@@H](CCC(N)=O)C(=O)O [ALANYL GLUTAMINE] (H-Ala-Gln-OH) | > 30 | > 30 | > 30 | > 30 | > 30 | > 30 | 15 | > 30 | > 30
CS(=O)(=O)NC(=O)CCC/C=C\C[C@H]1C(=O)C[C@@H](O)[C@@H]1/C=C/[C@@H](O)COc1ccccc1 [SULPROSTONE] | > 30 | > 30 | > 30 | > 30 | > 30 | > 30 | > 30 | > 30 | > 30

The remaining lines, values ahead:

AC50 [1] [µM] | AC50 [2] [µM] | AC50 [3] [µM] | AC50 (Motilin receptor) [µM] | AC50 (Progesterone receptor) [µM] | AC50 [4] [µM] | AC50 [5] [µM] | AC50 (Cannabinoid receptor 1) [µM] | AC50 [6] [µM] | Structure (SMILES)
> 30 | > 30 | > 30 | > 30 | 10 | > 30 | 21 | > 30 | > 30 | CN1CCCN=C1/C=C/c1cccc(O)c1 [OXANTEL]
> 30 | > 30 | > 30 | > 30 | > 30 | > 30 | > 30 | > 30 | > 30 | COC(=O)c1ccc2c(c1)NC(=O)/C2=C(\Nc1ccc(N(C)C(=O)CN2CCN(C)CC2)cc1)c1ccccc1 [NINTEDANIB]
> 30 | > 30 | > 30 | > 30 | > 30 | > 30 | 11 | > 30 | > 30 | COc1cc(N)cn[n+]1-c1ccccc1 [AMEZINIUM METILSULFATE]
> 10 | > 10 | > 10 | > 10 | > 10 | > 10 | 18 | > 30 | > 10 | CC(C(=O)O)c1ccc(C(=O)c2ccccc2)s1 (centres undefined) [TIAPROFENIC ACID]
> 30 | > 30 | > 30 | > 30 | > 30 | > 30 | > 30 | > 30 | > 30 | CCCCC[C@H](O)CC[C@@H]1[C@H]2Cc3cccc(OCC(=O)O)c3C[C@H]2C[C@H]1O [TREPROSTINIL]

— ChEMBL document CHEMBL5291721, “A preclinical secondary pharmacology resource illuminates target-adverse drug reaction associations of marketed drugs” (Nat Commun, 2023)
